We go through one molecule from patent publication US20090143484A1, “USE OF GARLIC OIL TO INCREASE BIOAVAILABILITY OF COENZYME Q-10” (priority 2007, published 2009).

Data set [1] has as its system Human LDL. The data set is described as follows: Prevention of LDL oxidation (CuSO4-initiated conjugated diene formation at 234 nm). In kind it is biochemical. To be noted: LDL 0.1 mg/ml. As to the method:
Human LDL were obtained by ultracentrifugation from fresh human blood, followed by dialysis against in 10 mM PBS (pH 7.4) at 4° C. in the dark for 24 h. LDL (0.1 mg/ml) were mixed with different amounts of active constituents. Reaction was initiated by adding a solution of CuSO4 (10 μM); samples were then incubated at 37° C. for 22 h. The formation of conjugated diene was measured at 234 nm using a Hewlett-Packard spectrophotometer (Agilent, Palo Alto).
Data evaluation was performed by comparison of the slope of increase in diene-formation. The steepest slope (i.e. without addition of anti-oxidants) was set to 100%. Results are given as relative %.
The lag-time until start of diene formation was estimated from the kinetic curves obtained. Results are given in minutes.

In data set [2] the test system is Caco-2 HTB-37 (human colon adenocarinoma). The data set is described as follows: Absorption testing using Caco-2 cells (cellular uptake of CoQ10, HPLC). To be noted: 37° C., up to 2 h. The data set is classed as in vitro ADME. As for the experimental part:
Caco-2 HTB-37 (human colon adenocarinoma), obtained from ATCC, were cultured in DMEM (Dulbecco/Vogt modified Eagle's minimal essential medium) containing 20% FCS (Fetal Calf Serum), 1% nonessential amino acids, 0.83 mM L-glutamine and 1% penicillin-streptomycin at 37° C. in a humified atmosphere of CO2. Cells were grown in 75 cm^2 culture-flasks (T75) and their medium was replaced every third day. As soon as confluency was reached—once a week—they were split using trypsin.
After discarding the old medium, the monolayer was washed with 10 mL PBS. Subsequently, 3 mL trypsin was added in order to detach the cells. […]
The remaining 9 mL cell-suspension was used for experiments and was therefore transferred into a 15 mL falcon. After the cells had been counted by using a Neubauer-chamber, cells were seeded into 6 Well Thin Certs and 6 Wells at a density of 3×10^5 and 6.76×10^5, respectively. […]
The optimum amount of the emulsifier lecithin had to be determined individually for each sample. […]
A reversed-phase column (Spherimage-80) with 5 μm pore size and […] was used. […] Coenzyme Q10 (oxidized and reduced) were monitored at 275 nm.
CoQ10 was determined in the media (outside the cells) and in the cells. Both, oxidized and reduced CoQ10, were quantified. […]

Structures are written as SMILES.

For orientation: Inhibition means how much of the control response was suppressed. Take `COC1=C(OC)C(=O)C(C/C=C(\C)CC/C=C(\C)CC/C=C(\C)CC/C=C(\C)CC/C=C(\C)CC/C=C(\C)CC/C=C(\C)CC/C=C(\C)CC/C=C(\C)CCC=C(C)C)=C(C)C1=O` [CoQ10]: the Inhibition in data set [1] (0.1 mg/mL of CoQ10) is 13%; in data set [1] (1 mg/mL of CoQ10), 43%; in data set [1] (1 mg/mL of CoQ10, listed as CoQ-10) it was “about 43%”; in data set [1] (10 mg/mL of CoQ10) it was 68%. The Residual activity turned out to be 87% in data set [1] (0.1 mg/mL of CoQ10), 57% in data set [1] (1 mg/mL of CoQ10) and 32% in data set [1] (10 mg/mL of CoQ10). Moreover, in data set [1] (lag time to start of LDL-oxidation, Co Q10 1 mg/mL), the “Lag Time” value was 146 min. In addition, the “content of CoQ10 in the media during the incubation conditions” value in data set [2] is reported as “stable”.
